Experimental data published in US8926966B1 (Regents of the University of California, priority 1990, dated 2015).

Test system: IDDM associated autoantibodies in sera
Experiment: ELISA of sera on plate-bound human GAD65 peptides
Assay type: binding
Procedure: Patient sera and most control sera were those used in a previous study (Kaufman, et al., J. Clin. Investigation, supra) All samples were coded and tested in a blind manner. Peptides were synthesized using an automatic instrument (Applied Biosystems, Foster City, Calif.) and standard conditions. Peptides were dissolved in 60 mM sodium bicarbonate buffer (pH 9.6) at 20 ug/ml and 100 ul of each was added to duplicated wells of a 96 well Nunc-Immuno Plate. Peptides were allowed to bind at 4° C. overnight. The plates were then washed three times with PBS+0.1% Tween 20 (wash buffer), after which the plates were pre-absorbed with 3% BSA in sodium bicarbonate buffer for 0.5 hours at 37° C., or at room temperature overnight. The plates were then washed 5 times with the above wash buffer. 100 ul of serum at a 1/300 dilution in PBS+0.1% Tween 20 and 1% BSA was added to each well and antibodies were allowed to bind for 1 hour at 37° C. The plates were washed 5 times with wash buffer. 100 ul of a 1/600 dilution of HRP-goat anti-human IgG (BRL, Gaithersberg, Md.) was added to each well and allowed to bind for 1 hour at 37° C. The plates were then washed 7 times and 100 ul of substrate buffer was added to each well for 30 minutes at room temperature. The color development was measured at 410 nm using an ELISA plate reader (ICN, Biomedicals, Costa Mesa, Calif.). Positive sera were defined as: OD410 of the sample/negative control ≧3.0.

In the case of QPPRAAARKAACACDQKPCSC [Peptide 5], the “immunoreactivity by both control and patient sera” value is reported as “often positive”, the “immunoreactivity of serum with GAD65 peptide” value (“immunoreactivity of serum” for short) (IDDM At Onset serum 048, 1/300 dilution) is reported as “X (X = positive for immunoreactivity as defined by 00/background^3.0)” and the “immunoreactivity of serum” value (IDDM At Onset serum 291, 1/300 dilution) is reported as “X (X = positive for immunoreactivity as defined by 00/background^3.0)”. The “immunoreactivity of serum” value (IDDM At Onset serum 705, 1/300 dilution) was “X (X = positive for immunoreactivity as defined by 00/background^3.0)”, the “immunoreactivity of serum” value (IDDM At Onset serum S.H., 1/300 dilution) was “X (X = positive for immunoreactivity as defined by 00/background^3.0)” and the “immunoreactivity of serum” value (IDDM At Risk serum 052, 1/300 dilution) was “X (X = positive for immunoreactivity as defined by 00/background^3.0)”. For the same sequence, the “immunoreactivity of serum” value (IDDM At Risk serum 356, 1/300 dilution) was “X (X = positive for immunoreactivity as defined by 00/background^3.0)”, the “immunoreactivity of serum” value (IDDM At Risk serum 825, 1/300 dilution) was “X (X = positive for immunoreactivity as defined by 00/background^3.0)” and the “immunoreactivity of serum” value (IDDM At Risk serum L.I., 1/300 dilution) was “X (X = positive for immunoreactivity as defined by 00/background^3.0)”. For the same sequence, the “immunoreactivity of serum” value (Pre-IDDM serum 723, 1/300 dilution) was “X (X = positive for immunoreactivity as defined by 00/background^3.0)”, the “immunoreactivity of serum” value (Pre-IDDM serum B.Y. (1), 1/300 dilution) was “X (X = positive for immunoreactivity as defined by 00/background^3.0)” and the “immunoreactivity of serum” value (Pre-IDDM serum B.Y. (2), 1/300 dilution) was “X (X = positive for immunoreactivity as defined by 00/background^3.0)”. For the same sequence, the “immunoreactivity of serum” value (Pre-IDDM serum J.A., 1/300 dilution) was “X (X = positive for immunoreactivity as defined by 00/background^3.0)”, the “immunoreactivity of serum” value (Pre-IDDM serum J.B. (1), 1/300 dilution) was “b (b = borderline response (00/background ?2.5-2.9).)” and the “immunoreactivity of serum” value (Pre-IDDM serum J.B. (2), 1/300 dilution) was “X (X = positive for immunoreactivity as defined by 00/background^3.0)”. The “immunoreactivity of serum” value (Pre-IDDM serum P.T. (1), 1/300 dilution) was “X (X = positive for immunoreactivity as defined by 00/background^3.0)”, the “immunoreactivity of serum” value (Pre-IDDM serum P.T. (2), 1/300 dilution) was “X (X = positive for immunoreactivity as defined by 00/background^3.0)” and the “immunoreactivity of serum” value (Pre-IDDM serum R.S. (1), 1/300 dilution) was “X (X = positive for immunoreactivity as defined by 00/background^3.0)”. The “immunoreactivity of serum” value (Pre-IDDM serum R.S. (2), 1/300 dilution) was “X (X = positive for immunoreactivity as defined by 00/background^3.0)”, the “immunoreactivity of serum” value (control serum 1688, 1/300 dilution) was “b (b = borderline response (00/background ?2.5-2.9).)” and the “immunoreactivity of serum” value (control serum 4380, 1/300 dilution) was “X (X = positive for immunoreactivity as defined by 00/background^3.0)”. For the same sequence, the “immunoreactivity of serum” value (control serum 5620, 1/300 dilution) was “X (X = positive for immunoreactivity as defined by 00/background^3.0)”, the “immunoreactivity of serum” value (control serum 5748, 1/300 dilution) was “X (X = positive for immunoreactivity as defined by 00/background^3.0)” and the “immunoreactivity of serum” value (control serum A.P., 1/300 dilution) was “X (X = positive for immunoreactivity as defined by 00/background^3.0)”. For the same sequence, the “immunoreactivity of serum” value (control serum FA2, 1/300 dilution) was “X (X = positive for immunoreactivity as defined by 00/background^3.0)”, the “immunoreactivity of serum” value (control serum FA9, 1/300 dilution) was “X (X = positive for immunoreactivity as defined by 00/background^3.0)” and the “immunoreactivity of serum” value (control serum FA11, 1/300 dilution) was “X (X = positive for immunoreactivity as defined by 00/background^3.0)”. For the same sequence, the “immunoreactivity of serum” value (control serum H.B., 1/300 dilution) was “b (b = borderline response (00/background ?2.5-2.9).)”, the “immunoreactivity of serum” value (control serum P.T., 1/300 dilution) was “X (X = positive for immunoreactivity as defined by 00/background^3.0)” and the “immunoreactivity of serum” value (control serum S.M., 1/300 dilution) was “X (X = positive for immunoreactivity as defined by 00/background^3.0)”.
